US8785436B2, “1,3-oxazines as BACE 1 and/or BACE2 inhibitors” (Hoffmann-La Roche Inc., priority 2011, dated 2014)

Key:
[1] = molecular target: T1, BACE1 (Homo sapiens, UniProt P56817); assay: Cellular Aβ-lowering assay b) (Abeta 40 AlphaLISA, HEK293 APP cells); format: cell-based; conditions: 18-20 hrs incubation, read-out: BACE1 cell act. Aβ40 IC50
T1 construct: Human HEK293 cells which are stably transfected with a vector expressing a cDNA of the human APP wt gene (APP695); endogenous in cells; host or cells: HEK293 cells stably expressing human APP695 wt
Description: Cellular Aβ-Lowering Assay:
b) Alternatively, the Abeta 40 AlphaLISA Assay can be used. The HEK293 APP cells were seeded in 96 well Microtiter plates in cell culture medium (Iscove's, plus 10% (v/v) fetal bovine serum, penicillin/streptomycin) to about 80% confluency and the compounds were added at a 3× concentration in 1/3 volume of culture medium (final DMSO concentration was kept at 1% v/v). After 18-20 hrs incubation at 37° C. and 5% CO2 in a humidified incubator, the culture supernatants were harvested for the determination of Aβ 40 concentrations using Perkin-Elmer Human Amyloid beta 1-40 (high specificity) Kit (Cat# AL275C).
In a Perkin-Elmer White Optiplate-384 (Cat#6007290), 2 ul culture supernatants were combined with 2 μl of a 10× AlphaLISA Anti-hAβ Acceptor beads+Biotinylated Antibody Anti-Aβ 1-40 Mix (50 μg/mL/5 nM). After 1 hour room temperature incubation, 16 μl of a 1.25× preparation of Streptavidin (SA) Donor beads (25 μg/mL) were added and incubated for 30 minutes in the Dark. Light Emission at 615 nm was then recorded using EnVision-Alpha Reader. Levels of Aβ 40 in the culture supernatants were calculated as percentage of maximum signal (cells treated with 1% DMSO without inhibitor). The IC50 values were calculated using the Excel XLfit software.

[2] = molecular target: T2, BACE2 (Rattus norvegicus, UniProt Q6IE75); assay: BACE inhibition by measuring cellular TMEM27 cleavage (INS-TMEM27 cells, ELISA); format: cell-based; conditions: INS-TMEM27 (Ins1e rat) cells, shed human TMEM27 by ELISA; read-out: BACE2 cell act. IC50
T2 construct: endogenous cellular BACE2 in the Ins1e rat cell line; endogenous in cells; host or cells: INS-TMEM27 (INS1e-derived rat cell line with TetOn-inducible full-length hTMEM27)
T2 sequence (Q6IE75 63-514): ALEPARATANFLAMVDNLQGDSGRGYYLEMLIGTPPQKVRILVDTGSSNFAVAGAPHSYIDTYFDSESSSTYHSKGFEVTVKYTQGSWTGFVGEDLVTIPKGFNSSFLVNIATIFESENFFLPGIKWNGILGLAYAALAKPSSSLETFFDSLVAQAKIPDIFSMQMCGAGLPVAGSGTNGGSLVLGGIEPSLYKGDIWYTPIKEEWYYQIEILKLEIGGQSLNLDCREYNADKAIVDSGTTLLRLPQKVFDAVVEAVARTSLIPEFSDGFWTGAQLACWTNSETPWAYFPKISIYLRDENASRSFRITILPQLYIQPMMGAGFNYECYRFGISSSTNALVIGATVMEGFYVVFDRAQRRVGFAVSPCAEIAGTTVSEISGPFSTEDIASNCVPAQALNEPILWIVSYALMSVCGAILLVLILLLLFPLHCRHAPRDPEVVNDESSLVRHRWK
Source text: Assay for BACE Inhibition by Measuring Cellular TMEM27 Cleavage:
The assay uses the principle of inhibition of human TMEM27 cleavage by endogenous cellular BACE2 in the Ins1e rat cell line and shedding from the cell surface into the culture medium, followed by detection in an ELISA assay Inhibition of BACE2 prevents the cleavage and shedding in a dose-dependent manner.
The stable cell line “INS-TMEM27” represents an INS1e-derived cell line with inducible expression (using the TetOn system) of full-length hTMEM27 in a doxycycline-dependent manner. The cells are cultured throughout the experiment in RPMI1640+Glutamax (Invitrogen) Penicillin/Streptomycin, 10% Fetal bovine serum, […], […], 100 micrograms/ml G418 and 100 microgram/ml hygromycin and are grown inadherent culture at 37° C. in a standard CO2 cell culture incubator.
INS-TMEM27 cells are seeded in 96-well plates. After 2 days in culture, BACE2 inhibitor is added in a range of concentrations as required by the assay and after a further two hours, doxycycline is added to a final concentration of 500 ng/ml. The cells are incubated for a further 46 hours and the supernatant harvested for detection of shed TMEM27.
An ELISA assay (using a pair of mouse anti-human-TMEM27 antibodies, raised against the extracellular domain of TMEM27) is used for detection of TMEM27 in the culture medium. An EC50 for BACE2 inhibition is calculated using the ELISA readout for each inhibitor concentration with standard curve-fitting software such as XLFit for the Excel spreadsheet program.

T1 sequence (P56817 46-501): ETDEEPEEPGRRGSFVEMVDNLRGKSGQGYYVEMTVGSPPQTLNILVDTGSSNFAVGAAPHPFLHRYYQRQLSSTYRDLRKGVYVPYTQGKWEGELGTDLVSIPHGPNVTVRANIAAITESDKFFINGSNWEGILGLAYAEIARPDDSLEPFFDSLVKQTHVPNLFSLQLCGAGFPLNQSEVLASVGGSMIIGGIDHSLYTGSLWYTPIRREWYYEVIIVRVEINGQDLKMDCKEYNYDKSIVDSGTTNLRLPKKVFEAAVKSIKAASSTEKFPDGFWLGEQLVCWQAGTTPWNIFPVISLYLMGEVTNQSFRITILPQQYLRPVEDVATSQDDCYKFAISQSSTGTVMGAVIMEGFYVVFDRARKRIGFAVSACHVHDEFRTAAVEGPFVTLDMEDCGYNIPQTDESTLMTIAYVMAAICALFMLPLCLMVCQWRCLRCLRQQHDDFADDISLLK

CC1(C)OC(N)=N[C@](C)(c2cc(Nc3cccc(C(F)(F)F)n3)ccc2F)C1(F)F [Example 47, (R)-5,5-Difluoro-4-[2-fluoro-5-(6-trifluoromethyl-pyridin-2-ylamino)-phenyl]-4,6,6-trimethyl-5,6-dihydro-4H-[1,3]oxazin-2-ylamine] gave an IC50 [1] of 4170 nM and an IC50 [2] of 2750 nM.
For C[C@]1(c2cccc(OCC3CC3)c2)N=C(N)OCC1(F)F [Example 59, (R)-4-(3-Cyclopropylmethoxy-phenyl)-5,5-difluoro-4-methyl-5,6-dihydro-4H-[1,3]oxazin-2-ylamine], the IC50 [1] was 3120 nM.
C[C@]1(c2cnn(-c3cccc(C#N)c3)c2)N=C(N)OCC1(F)F [Example 60, 3-[4-((R)-2-Amino-5,5-difluoro-4-methyl-5,6-dihydro-4H-[1,3]oxazin-4-yl)-pyrazol-1-yl]-benzonitrile] showed an IC50 [1] of 4620 nM.
In the case of C#Cc1cccc(-n2cc([C@@]3(C)N=C(N)OCC3(F)F)cn2)c1 [Example 61, (R)-4-[1-(3-Ethynyl-phenyl)-1H-pyrazol-4-yl]-5,5-difluoro-4-methyl-5,6-dihydro-4H-[1,3]oxazin-2-ylamine], the IC50 [1] is reported as 720 nM.
C[C@]1([C@@H]2C[C@H]2C(=O)Nc2cccc3cc(Cl)cnc23)N=C(N)OCC1(F)F [Example 63, (1R,2R)-((R)-2-Amino-5,5-difluoro-4-methyl-5,6-dihydro-4H-[1,3]oxazin-4-yl)-cyclopropanecarboxylic acid(3-chloro-quinolin-8-yl)-amide] gave an IC50 [1] of 360 nM and an IC50 [2] of 1350 nM.
Compound C[C@]1([C@@H]2C[C@H]2C(=O)Nc2csc3cc(C#N)cnc23)N=C(N)OCC1(F)F [Example 65, (1R,2R)-2-((R)-2-Amino-5,5-difluoro-4-methyl-5,6-dihydro-4H-[1,3]oxazin-4-yl)-cyclopropanecarboxylic acid(6-cyano-thieno[3,2-b]pyridin-3-yl)-amide] has an IC50 [1] of 180 nM.
In the case of C[C@]1(c2cnn(-c3cccc(Br)c3)c2)N=C(N)OCC1(F)F [Intermediate K7.1, (R)-4-[1-(3-bromo-phenyl)-1H-pyrazol-4-yl]-5,5-difluoro-4-methyl-5,6-dihydro-4H-[1,3]oxazin-2-ylamine], the IC50 [1] is reported as 1440 nM.
